We go through three compounds from US12662705B2, “Interferon pathway genes regulate and predict efficacy of immunotherapy” (THE TRUSTEES OF THE UNIVERSITY OF PENNSYLVANIA, priority 2018, dated 2026).

“Also recorded” adds a separate entry of the source.

Data set [1] deals with IFNGR knockout Res 499 tumors. As to the kind of experiment: In vivo cytokine rescue studies in CD8 T cell-depleted mice. More on the design: species or system mouse. The note with it: direct intratumoral injection. On the procedure: In vivo cytokine rescue studies: All mice were pre-treated with anti-CD8 two days before tumor injection. Either 1 μg IFNg or 100 ng CXCL10 was mixed in the PBS/tumor cell suspension prior to injection of the tumor. Mice then continued receiving 500-1000 ng IFNG or 100 ng CXCL10 intra/peritumorally every 3 days post-tumor implantation. For flow cytometry experiments, mice were harvested at day 13 to examine the effects of cytokine addback on immune recruitment in the absence of CD8 T cells. For survival experiments, intra/peritumoral injections continued every 3 days for the remainder of the experiment.

In data set [2] the test system is PD-L1 positive advanced NSCLC. The note with it: cited from earlier work.
The target in another data set is JAK1 (Homo sapiens, UniProt P23458). The following applies: read-out: half maximal inhibitory concentration [IC50]; cited from earlier work.
JAK1, sequence (P23458 whole entry): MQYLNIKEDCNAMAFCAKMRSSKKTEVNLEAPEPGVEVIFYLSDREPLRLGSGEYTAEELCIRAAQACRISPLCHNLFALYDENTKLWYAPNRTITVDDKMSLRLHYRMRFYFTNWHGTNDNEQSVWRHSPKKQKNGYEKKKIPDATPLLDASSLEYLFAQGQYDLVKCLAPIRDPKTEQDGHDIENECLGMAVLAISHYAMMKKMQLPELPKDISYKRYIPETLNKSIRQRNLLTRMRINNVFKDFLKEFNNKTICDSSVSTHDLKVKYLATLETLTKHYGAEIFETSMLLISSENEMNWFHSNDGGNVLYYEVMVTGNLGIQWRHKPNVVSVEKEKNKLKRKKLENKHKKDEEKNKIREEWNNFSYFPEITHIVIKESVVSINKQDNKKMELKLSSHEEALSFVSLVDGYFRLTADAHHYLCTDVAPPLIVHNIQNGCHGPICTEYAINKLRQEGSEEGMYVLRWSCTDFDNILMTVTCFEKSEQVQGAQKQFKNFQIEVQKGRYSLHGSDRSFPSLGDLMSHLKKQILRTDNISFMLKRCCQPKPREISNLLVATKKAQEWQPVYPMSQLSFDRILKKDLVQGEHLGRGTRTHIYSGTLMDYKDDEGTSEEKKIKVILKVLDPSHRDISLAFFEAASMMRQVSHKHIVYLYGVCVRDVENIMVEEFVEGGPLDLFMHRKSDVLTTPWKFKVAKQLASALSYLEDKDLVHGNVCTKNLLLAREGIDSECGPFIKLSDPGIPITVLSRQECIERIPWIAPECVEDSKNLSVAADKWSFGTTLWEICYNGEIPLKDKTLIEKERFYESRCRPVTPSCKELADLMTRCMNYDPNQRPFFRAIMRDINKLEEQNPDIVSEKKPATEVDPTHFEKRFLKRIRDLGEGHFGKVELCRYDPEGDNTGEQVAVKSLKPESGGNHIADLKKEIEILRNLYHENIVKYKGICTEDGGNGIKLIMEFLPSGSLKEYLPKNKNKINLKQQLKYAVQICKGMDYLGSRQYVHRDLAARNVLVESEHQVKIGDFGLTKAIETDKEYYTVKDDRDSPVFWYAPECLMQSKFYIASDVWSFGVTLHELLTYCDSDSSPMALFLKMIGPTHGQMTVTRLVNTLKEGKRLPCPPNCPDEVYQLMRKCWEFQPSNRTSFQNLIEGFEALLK
The conditions of data set [3]: total daily dose 1200 mg; cited from earlier work.

In the case of “CXCL10: IFNG-regulated CXCR3 ligand chemokine injected intra/peritumorally”, in data set [1], the “rescue of the decrease in NK/ILC frequency after CD8 T cell depletion” value is given as “partially rescue”.
Regarding “Pembrolizumab: humanized monoclonal antibody of the IgG4/kappa isotype blocking the interaction between PD-1 and its ligands”, the “overall and progression free survival versus platinum doublet chemotherapy” value in data set [2] (PD-L1 expression greater than or equal to 50%) was “superior overall and progression free survival; also recorded: improve overall survival and progression free survival”. Also, the response rate in data set [2] (first line NSCLC, tumors expressing high level of PD-L1 (>50%)) is reported as 44.8%. Also, the ORR in data set [2] (untreated PD-L1 positive advanced NSCLC) is given as 45%.
With `N#CCC1(n2cc(-c3ncnc4[nH]ccc34)cn2)CN(C2CCN(C(=O)c3ccnc(C(F)(F)F)c3F)CC2)C1` [Itacitinib], the IC50 at JAK1 is 3.6 nM. Besides, in data set [3], the “adverse events at highest total daily dose” value is on record as “no adverse events”.
